Data reported in US20210395645A1, “CLEANING LIQUID” (FUJIFILM Electronic Materials Co., Ltd., priority 2019, published 2021).

Excerpt: The following compounds were used as chelating agents in manufacture of cleaning liquids.

Row | pKa1 | pKa2 | pKa3 | pKa4 | pKa5 | pKa6 | pKa7 | pKa8 | SMILES
1 | 2.35 | 9.87 |  |  |  |  |  |  | NCCC(=O)O [ALA, β-Alanine]
2 | 1.82 | 9.01 | 12.48 |  |  |  |  |  | N=C(N)NCCC[C@H](N)C(=O)O [Arginine]
3 |  |  | 6.71 |  |  |  |  |  | O=C(O)CC(O)(CC(=O)O)C(=O)O [Citric acid]
4 | 2.14 | 2.38 | 4.26 | 8.60 | 10.53 |  |  |  | O=C(O)CN(CCN(CC(=O)O)CC(=O)O)CCN(CC(=O)O)CC(=O)O [DTPA, Diethylenetriaminepentaacetic acid]
5 | 2.00 | 2.70 | 6.2 | 10.30 |  |  |  |  | O=C(O)CN(CCN(CC(=O)O)CC(=O)O)CC(=O)O [EDTA, Ethylenediaminetetraacetic acid]
6 | 1.46 | 2.72 | 5.06 | 6.18 | 6.63 | 7.43 | 9.22 | 10.6 | O=P(O)(O)CN(CCN(CP(=O)(O)O)CP(=O)(O)O)CP(=O)(O)O [EDTPO, N,N,N′,N′-Ethylenediaminetetrakis(methylenephosphonic acid)]
7 | 2.35 | 9.78 |  |  |  |  |  |  | NCC(=O)O [Gly, Glycine]
8 | 1.35 | 2.87 | 7.03 | 11.3 |  |  |  |  | CC(O)(P(=O)(O)O)P(=O)(O)O [HEDP, 1-Hydroxyethylidene-1,1′-diphosphonic acid]
9 |  | 7.40 |  |  |  |  |  |  | O=C(O)C(O)C(O)C(=O)O (stereo not drawn) [Tartaric acid]
